Strand notation (5' to 3'): a small letter for the sugar, then the base; units joined by * are phosphorothioate-linked, units joined directly phosphodiester-linked; [ ] holds rarer units or linkages, { } end groups; capitals alone tell only the bases. k = constrained ethyl (cEt); [5mC] = 5-methylcytosine; d = 2'-deoxy (DNA)
Experiments:
[1] = tested on: Yap1 mRNA; assay: Antisense inhibition of human Yap1 in A-431 cells by cEt gapmers, single dose (Example 3, RTS36584); format: cell-based
Summary of the method: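 Single-dose free-uptake screen of 3-10-3 cEt gapmers in A-431 cells at 2,000 nM over about 48 h. Values are % untreated control Yap1 mRNA.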

[2] = tested on: Yap1 mRNA; assay: Dose-dependent inhibition of human Yap1 in A-431 cells (Example 8, 10,000 cells per well, RTS4814); format: cell-based; conditions: for Yap1 mRNA, % UTC: A-431 cells, 10,000 cells per well; for IC50 / % UTC (Yap1 mRNA): A-431 cells
Summary of the method: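 Yap1 mRNA, normalized to RIBOGREEN total RNA and expressed as % untreated control, was read with RTS4814 about 48 h after free-uptake oligonucleotide treatment of A-431 cells at 10,000 cells/well. IC50 derived by linear regression of log/linear data.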

[3] = Table 26, Yap1 mRNA by 3-10-3 cEt gapmers targeting SEQ ID NO.: 1, and 2, percent of untreated control
[4] = 31.3 nM, free uptake, approximately 48 hours, RTS4814
[5] = 125.0 nM, free uptake, approximately 48 hours, RTS4814
[6] = 500.0 nM, free uptake, approximately 48 hours, RTS4814
[7] = 2000.00 nM, free uptake, approximately 48 hours, RTS4814
[8] = free uptake, approximately 48 hours, RTS4814, linear regression on log/linear plot
[9] = Table 28, Yap1 mRNA as percent of untreated control, 3-10-3 cEt gapmers targeting SEQ ID NO.: 1, and 2
[10] = Table 27, Yap1 mRNA by 3-10-3 cEt gapmers targeting SEQ ID NO.: 1, and 2, percent of untreated control
[11] = Table 34, Yap1 mRNA as percent of untreated control, 3-10-3 cEt gapmers targeting SEQ ID NO: 1 and 2, single dose
[12] = Table 35, Yap1 mRNA as percent of untreated control, 3-10-3 cEt gapmers targeting SEQ ID NO: 1 and 2, single dose

1074508 (kG*kA*kG*dA*dG*dA*dG*d[5mC]*dA*dG*dA*dT*dA*kA*kT*k[5mC]; antisense) [compound 1074508]
YAP1 (% UTC) [1, 3]: 7 % UTC
Yap1 mRNA, % UTC [2, 4]: 62 % UTC
Yap1 mRNA, % UTC [2, 5]: 30 % UTC
Yap1 mRNA, % UTC [2, 6]: 14 % UTC
Yap1 mRNA, % UTC [2, 7]: 8 % UTC
IC50 [2, 8]: 50 nM

1074318 (antisense kG*kG*kA*dG*dA*dA*dT*dT*dT*dG*d[5mC]*dT*dG*kT*kG*k[5mC]) [compound 1074318]
YAP1 (% UTC) [1, 9]: 4 % UTC
Yap1 mRNA, % UTC [2, 4]: 48 % UTC
Yap1 mRNA, % UTC [2, 5]: 12 % UTC
Yap1 mRNA, % UTC [2, 6]: 6 % UTC
Yap1 mRNA, % UTC [2, 7]: 4 % UTC
IC50 [2, 8]: < 20 nM

1075053 (antisense kA*kA*kT*dA*dT*dA*dT*dA*d[5mC]*dT*dT*dG*dA*kT*k[5mC]*k[5mC]) [compound 1075053]
YAP1 (% UTC) [1, 10]: 4 % UTC
Yap1 mRNA, % UTC [2, 4]: 61 % UTC
Yap1 mRNA, % UTC [2, 5]: 24 % UTC
Yap1 mRNA, % UTC [2, 6]: 8 % UTC
Yap1 mRNA, % UTC [2, 7]: 5 % UTC
IC50 [2, 8]: 40 nM

1074222 (antisense kA*kG*kG*dA*dA*dT*dG*dA*dG*d[5mC]*dT*d[5mC]*dG*kA*kA*k[5mC]) [compound 1074222]
YAP1 (% UTC) [1, 9]: 5 % UTC
Yap1 mRNA, % UTC [2, 4]: 59 % UTC
Yap1 mRNA, % UTC [2, 5]: 21 % UTC
Yap1 mRNA, % UTC [2, 6]: 8 % UTC
Yap1 mRNA, % UTC [2, 7]: 5 % UTC
IC50 [2, 8]: < 20 nM

1076462 (kT*k[5mC]*kA*dG*dA*dA*dG*dG*dA*dT*dA*dT*dG*k[5mC]*kA*kG; antisense) [compound 1076462]
YAP1 (% UTC) [1, 9]: 6 % UTC
Yap1 mRNA, % UTC [2, 4]: 61 % UTC
Yap1 mRNA, % UTC [2, 5]: 22 % UTC
Yap1 mRNA, % UTC [2, 6]: 8 % UTC
Yap1 mRNA, % UTC [2, 7]: 5 % UTC
IC50 [2, 8]: 30 nM

1075916 (antisense k[5mC]*kA*kA*dT*dT*dT*dA*dG*dG*dA*dT*dG*d[5mC]*k[5mC]*kT*kT) [compound 1075916]
YAP1 (% UTC) [1, 3]: 6 % UTC
Yap1 mRNA, % UTC [2, 4]: 73 % UTC
Yap1 mRNA, % UTC [2, 5]: 34 % UTC
Yap1 mRNA, % UTC [2, 6]: 14 % UTC
Yap1 mRNA, % UTC [2, 7]: 8 % UTC
IC50 [2, 8]: 100 nM

1074444 (kA*k[5mC]*kA*dT*dT*dT*dT*dT*dG*dG*d[5mC]*dT*dT*kG*kT*k[5mC]; antisense) [compound 1074444]
YAP1 (% UTC) [1, 3]: 3 % UTC
Yap1 mRNA, % UTC [2, 4]: 49 % UTC
Yap1 mRNA, % UTC [2, 5]: 21 % UTC
Yap1 mRNA, % UTC [2, 6]: 7 % UTC
Yap1 mRNA, % UTC [2, 7]: 4 % UTC
IC50 [2, 8]: < 20 nM

1076524 (kA*kA*kT*dT*dT*dA*dT*dA*dT*d[5mC]*dA*dG*dG*kT*k[5mC]*kA; antisense) [compound 1076524]
YAP1 (% UTC) [1, 3]: 6 % UTC
Yap1 mRNA, % UTC [2, 4]: 71 % UTC
Yap1 mRNA, % UTC [2, 5]: 30 % UTC
Yap1 mRNA, % UTC [2, 6]: 12 % UTC
Yap1 mRNA, % UTC [2, 7]: 7 % UTC
IC50 [2, 8]: 100 nM

1074452 (kT*kG*kA*d[5mC]*dT*dA*dA*dT*dG*dA*dT*dA*dG*k[5mC]*kA*k[5mC]; antisense) [compound 1074452]
YAP1 (% UTC) [1, 11]: 3 % UTC
% UTC (Yap1 mRNA) ([2]; 31.3 nM): 88 % UTC
% UTC (Yap1 mRNA) ([2]; 125.0 nM): 28 % UTC
% UTC (Yap1 mRNA) ([2]; 500.0 nM): 9 % UTC
% UTC (Yap1 mRNA) ([2]; 2000.00 nM): 5 % UTC
IC50 ([2]; Yap1 mRNA): 100 nM

1075701 (kA*kA*kT*dT*dA*d[5mC]*dT*dA*dG*dA*dG*dG*d[5mC]*kT*kT*k[5mC]; antisense) [compound 1075701]
YAP1 (% UTC) [1, 12]: 3 % UTC
% UTC (Yap1 mRNA) ([2]; 31.3 nM): 84 % UTC
% UTC (Yap1 mRNA) ([2]; 125.0 nM): 34 % UTC
% UTC (Yap1 mRNA) ([2]; 500.0 nM): 11 % UTC
% UTC (Yap1 mRNA) ([2]; 2000.00 nM): 6 % UTC
IC50 ([2]; Yap1 mRNA): 100 nM

1076084 (k[5mC]*kA*kT*d[5mC]*dA*dA*dT*dA*dG*dA*dG*dA*dG*kT*k[5mC]*kG; antisense) [compound 1076084]
YAP1 (% UTC) [1, 11]: 7 % UTC
% UTC (Yap1 mRNA) ([2]; 31.3 nM): 69 % UTC
% UTC (Yap1 mRNA) ([2]; 125.0 nM): 34 % UTC
% UTC (Yap1 mRNA) ([2]; 500.0 nM): 12 % UTC
% UTC (Yap1 mRNA) ([2]; 2000.00 nM): 8 % UTC
IC50 ([2]; Yap1 mRNA): 100 nM

1076077 (kG*kG*kA*dT*dT*dA*dA*dA*dG*dT*dT*dT*dT*k[5mC]*kA*k[5mC]; antisense) [compound 1076077]
YAP1 (% UTC) [1, 10]: 5 % UTC
Yap1 mRNA, % UTC [2, 4]: 53 % UTC
Yap1 mRNA, % UTC [2, 5]: 19 % UTC
Yap1 mRNA, % UTC [2, 6]: 9 % UTC
Yap1 mRNA, % UTC [2, 7]: 5 % UTC
IC50 [2, 8]: < 20 nM

1076461 (kG*kA*kT*dT*dA*dA*dT*dA*dT*dA*dG*d[5mC]*d[5mC]*k[5mC]*k[5mC]*kT; antisense) [compound 1076461]
YAP1 (% UTC) [1, 10]: 3 % UTC
Yap1 mRNA, % UTC [2, 4]: 65 % UTC
Yap1 mRNA, % UTC [2, 5]: 24 % UTC
Yap1 mRNA, % UTC [2, 6]: 7 % UTC
Yap1 mRNA, % UTC [2, 7]: 3 % UTC
IC50 [2, 8]: 40 nM

1076015 (kA*kT*kT*dT*dA*dG*dT*dT*dG*dG*dT*dT*dG*kT*kT*kA; antisense) [compound 1076015]
YAP1 (% UTC) ([1]; Table 29, Yap1 mRNA as percent of untreated control, 3-10-3 cEt gapmers targeting SEQ ID NO.: 1, and 2): 8 % UTC
Yap1 mRNA, % UTC [2, 4]: 70 % UTC
Yap1 mRNA, % UTC [2, 5]: 37 % UTC
Yap1 mRNA, % UTC [2, 6]: 15 % UTC
Yap1 mRNA, % UTC [2, 7]: 9 % UTC
IC50 [2, 8]: 100 nM

1074509 (kT*kG*kT*dT*dA*dT*dG*dT*dT*dT*dG*dG*dG*kT*kG*kT; antisense) [compound 1074509]
YAP1 (% UTC) [1, 10]: 5 % UTC
Yap1 mRNA, % UTC [2, 4]: 44 % UTC
Yap1 mRNA, % UTC [2, 5]: 12 % UTC
Yap1 mRNA, % UTC [2, 6]: 6 % UTC
Yap1 mRNA, % UTC [2, 7]: 5 % UTC
IC50 [2, 8]: < 20 nM

1076396 (antisense k[5mC]*kT*kA*dT*dA*dT*dT*dT*dG*dA*dG*d[5mC]*d[5mC]*kA*kT*kG) [compound 1076396]
YAP1 (% UTC) [1, 3]: 2 % UTC
Yap1 mRNA, % UTC [2, 4]: 64 % UTC
Yap1 mRNA, % UTC [2, 5]: 22 % UTC
Yap1 mRNA, % UTC [2, 6]: 5 % UTC
Yap1 mRNA, % UTC [2, 7]: 3 % UTC
IC50 [2, 8]: 40 nM

1075797 (kG*kA*kT*dA*dA*dT*d[5mC]*dA*dT*dG*dA*dT*dA*k[5mC]*kT*k[5mC]; antisense) [compound 1075797]
YAP1 (% UTC) [1, 12]: 3 % UTC
% UTC (Yap1 mRNA) ([2]; 31.3 nM): 43 % UTC
% UTC (Yap1 mRNA) ([2]; 125.0 nM): 11 % UTC
% UTC (Yap1 mRNA) ([2]; 500.0 nM): 4 % UTC
% UTC (Yap1 mRNA) ([2]; 2000.00 nM): 3 % UTC
IC50 ([2]; Yap1 mRNA): < 20 nM

1074229 (antisense kG*kA*kA*dG*dA*d[5mC]*dT*dG*dT*d[5mC]*dG*dA*dA*kG*kA*kT) [compound 1074229]
YAP1 (% UTC) [1, 12]: 5 % UTC
% UTC (Yap1 mRNA) ([2]; 31.3 nM): 58 % UTC
% UTC (Yap1 mRNA) ([2]; 125.0 nM): 24 % UTC
% UTC (Yap1 mRNA) ([2]; 500.0 nM): 9 % UTC
% UTC (Yap1 mRNA) ([2]; 2000.00 nM): 5 % UTC
IC50 ([2]; Yap1 mRNA): < 20 nM

1074766 (kA*kT*k[5mC]*d[5mC]*d[5mC]*dA*dA*dT*dG*d[5mC]*dT*dA*d[5mC]*k[5mC]*k[5mC]*kA; antisense) [compound 1074766]
YAP1 (% UTC) [1, 9]: 8 % UTC
Yap1 mRNA, % UTC [2, 4]: 72 % UTC
Yap1 mRNA, % UTC [2, 5]: 32 % UTC
Yap1 mRNA, % UTC [2, 6]: 14 % UTC
Yap1 mRNA, % UTC [2, 7]: 7 % UTC
IC50 [2, 8]: 100 nM

1074548 (kA*kT*k[5mC]*dT*dA*d[5mC]*d[5mC]*dG*dT*dA*dT*dG*d[5mC]*k[5mC]*k[5mC]*kA; antisense) [compound 1074548]
YAP1 (% UTC) [1, 11]: 4 % UTC
% UTC (Yap1 mRNA) ([2]; 31.3 nM): 50 % UTC
% UTC (Yap1 mRNA) ([2]; 125.0 nM): 15 % UTC
% UTC (Yap1 mRNA) ([2]; 500.0 nM): 7 % UTC
% UTC (Yap1 mRNA) ([2]; 2000.00 nM): 8 % UTC
IC50 ([2]; Yap1 mRNA): < 20 nM

1075893 (antisense k[5mC]*kG*kT*dG*dA*dA*dA*dA*dA*dG*dA*dT*dG*kT*kG*kG) [compound 1075893]
YAP1 (% UTC) [1, 12]: 7 % UTC
% UTC (Yap1 mRNA) ([2]; 31.3 nM): 80 % UTC
% UTC (Yap1 mRNA) ([2]; 125.0 nM): 29 % UTC
% UTC (Yap1 mRNA) ([2]; 500.0 nM): 11 % UTC
% UTC (Yap1 mRNA) ([2]; 2000.00 nM): 8 % UTC
IC50 ([2]; Yap1 mRNA): 100 nM

Source: patent US11214803B2, “Modulators of YAP1 expression” (Ionis Pharmaceuticals, Inc., priority 2019, dated 2022)
